Laboratory results from patent US20120122928A1 (priority 2010, published 2012).
Marks after values point to notes of the source that are not given here.

Columns and labels:
Phytophthora infestans = format: in vivo; settings: young tomato plants sprayed, active ingredient concentration of 100 (unit not given); inoculated 1 day after treatment; evaluation 7 days after inoculation; 100% = no infection
Plasmopara viticola = assay: Plasmopara test (grapevine) / protective; format: in vivo; settings: young grapevine plants sprayed, active ingredient concentration 10 ppm; evaluation 6 days after inoculation; 100% = no infection
Experimental: Plasmopara Test (Grapevine)/Protective
To produce an appropriate active ingredient formulation, 1 part by weight of active ingredient is mixed with the specified amounts of solvent and emulsifier, and the concentrate is diluted with water to the desired concentration.
To test for protective efficacy, young plants are sprayed with the active ingredient formulation at the stated application rate. After the spray coating has dried on, the plants are inoculated with an aqueous spore suspension of Plasmopara viticola and then remain in an incubation cabin at approx. 20° C. and 100% relative air humidity for 1 day. Subsequently, the plants are placed in a greenhouse at approx. 21° C. and approx. 90% air humidity for 4 days. The plants are then moistened and placed in an incubation cabin for 1 day.
Evaluation follows 6 days after the inoculation. 0% means an efficacy which corresponds to that of the control, whereas an efficacy of 100% means that no infection is observed.
In this test, the following inventive compounds show, at an active ingredient concentration of 10 ppm, an efficacy of 70% or more: […]

[1] = LC-MS determination in the acidic range, pH 2.7, 0.1% aqueous formic acid and acetonitrile

SMILES	% eff. (Phytophthora infestans) [%]	% eff. (Plasmopara viticola) [%]	Log P [a] [1]
CC(C)(c1c(F)cccc1F)C1CC(c2csc(C3CCN(C(=O)Nc4cc(C(F)F)ccc4C(F)F)CC3)n2)=NO1 (stereo not drawn) [I-68]	94	96	4.29
O=C(Cn1nc(C(F)F)cc1C(F)F)N1CCC(c2nc(C3=NOC(COc4c(F)cccc4Br)C3)cs2)CC1 (stereo not drawn) [I-75]		98	3.67
CC(C)(c1ccccc1)C1CC(c2csc(C3(F)CCN(C(=O)Cn4nc(C(F)F)cc4C(F)F)CC3)n2)=NO1 (stereo not drawn) [I-11]	95		4.03^[a]
CC(C)(c1ccccc1)C1CC(c2csc(C3CCN(C(=O)Cn4nc(C(F)F)cc4C(F)F)CC3)n2)=NO1 (stereo not drawn) [I-4]	100	97	3.79^[a]
Cc1cc(C(F)(F)F)nn1CC(=O)N1CCC(c2nc(C3=NOC(COc4ccccc4)C3)cs2)CC1 (stereo not drawn) [I-37]	100	97	3.27
O=Cc1ccccc1OCC1CC(c2csc(C3CCN(C(=O)Cn4nc(C(F)F)cc4C(F)F)CC3)n2)=NO1 (stereo not drawn) [I-73]	90		2.83^[a]; 2.83^[b]
CC(C)(c1c(F)cccc1Cl)C1CC(c2csc(C3CCN(C(=O)Nc4cc(C(F)F)ccc4C(F)F)CC3)n2)=NO1 (stereo not drawn) [I-53]	91		4.53
Cc1cc(C(F)(F)F)nn1CC(=O)N1CCC(c2nc(C3=NOC(C(F)c4c(F)cccc4F)C3)cs2)CC1 (stereo not drawn) [I-20]	95	93	3.48^[a]
O=C(Cn1nc(C(F)F)cc1C(F)F)N1CCC(c2nc(C3=NOC(CSc4ccccc4)C3)cs2)CC1 (stereo not drawn) [I-10]	100	93	3.46
Cc1ccccc1SCC1CC(c2csc(C3CCN(C(=O)Cn4nc(C(F)F)cc4C(F)F)CC3)n2)=NO1 (stereo not drawn) [I-70]	95		3.78
O=C(Cn1nc(C(F)F)cc1C(F)F)N1CCC(c2nc(C3=NOC(CS(=O)(=O)c4ccccc4)C3)cs2)CC1 (stereo not drawn) [I-7]	100	96	2.65^[a]; 2.65^[b]
O=C(Cn1nc(C(F)F)cc1C(F)F)N1CCC(c2nc(C3=NOC(COc4ccccc4C=NO)C3)cs2)CC1 (mixture of isomers) [I-64]	95	73	2.62
CC(O)(c1c(F)cccc1F)C1CC(c2csc(C3CCN(C(=O)Cn4nc(C(F)F)cc4C(F)F)CC3)n2)=NO1 (stereo not drawn) [I-47]	93	95	3.03
O=C(Cn1nc(C(F)F)cc1C(F)F)N1CCC(c2nc(C3=NOC(COc4ccccc4Cl)C3)cs2)CC1 (stereo not drawn) [I-71]	100	100	3.35
O=C(Cn1nc(C(F)F)cc1C(F)F)N1CCC(c2nc(C3=NOC(C(O)(c4ccccc4)C(F)(F)F)C3)cs2)CC1 (stereo not drawn) [I-49]	97		3.2
Cc1cc(C(F)(F)F)nn1CC(=O)N1CCC(c2nc(C3=NOC(C(F)(F)c4ccccc4)C3)cs2)CC1 (stereo not drawn) [I-25]	100	94	3.55^[a]
COc1ccc(C)cc1NC(=O)N1CCC(c2nc(C3=NOC(COc4ccccc4)C3)cs2)CC1 (stereo not drawn) [I-38]	100		3.59
O=C(Cn1nc(C(F)F)cc1C(F)F)N1CCC(c2nc(C3=NOC(CSc4ccccc4F)C3)cs2)CC1 (stereo not drawn) [I-55]	94	100	3.54
Cc1ccc(Cl)cc1NC(=O)N1CCC(c2nc(C3=NOC(COc4c(Cl)cccc4Cl)C3)cs2)CC1 (stereo not drawn) [I-59]	94	100	4.08^[a]; 4.08^[b]
O=C(Cn1nc(C(F)F)cc1C(F)F)N1CCC(c2nc(C3=NOC(COc4c(F)cccc4Cl)C3)cs2)CC1 (stereo not drawn) [I-74]	100	100	3.44

SMILES	% eff. (Phytophthora infestans) [%]	% eff. (Plasmopara viticola) [%]	Log P [a] [1]
Cc1ccc(C)c(CC(=O)N2CCC(c3nc(C4=NOC(COc5ccccc5)C4)cs3)CC2)c1 (stereo not drawn) [I-29]	100	78	3.71
Cc1cc(C(F)(F)F)nn1CC(=O)N1CCC(c2nc(C3=NOC(COc4c(F)cccc4F)C3)cs2)CC1 (stereo not drawn) [I-54]	100	97	3.34
Cc1cc(C(F)(F)F)nn1CC(=O)N1CCC(c2nc(C3=NOC(C(C)(C)c4c(F)cccc4Cl)C3)cs2)CC1 (stereo not drawn) [I-67]	94	100	4.43
O=C(Cn1nc(C(F)F)cc1C(F)F)N1CCC(c2nc(C3=NOC(C(F)(F)c4cccs4)C3)cs2)CC1 (stereo not drawn) [I-57]	95	100	3.33^[a]
CN(CC1CC(c2csc(C3CCN(C(=O)Cn4nc(C(F)F)cc4C(F)F)CC3)n2)=NO1)c1ccccc1 (stereo not drawn) [I-14]	95		3.47
O=C(Cn1nc(C(F)F)cc1C(F)F)N1CCC(c2nc(C3=NOC(C(F)(F)c4c(F)cccc4F)C3)cs2)CC1 (stereo not drawn) [I-22]	95	100	3.47^[a]
O=C(Cn1nc(C(F)F)cc1C(F)F)N1CCC(c2nc(C3=NOC(CSc4ccccc4Br)C3)cs2)CC1 (stereo not drawn) [I-63]	91	96	3.72
Cc1cc(C(F)(F)F)nn1CC(=O)N1CCC(c2nc(C3=NOC(C(F)(F)c4c(F)cccc4F)C3)cs2)CC1 (stereo not drawn) [I-28]	100	98	3.51^[a]
COc1cccc(C=O)c1OCC1CC(c2csc(C3CCN(C(=O)Cn4nc(C(F)F)cc4C(F)F)CC3)n2)=NO1 (stereo not drawn) [I-72]	95	81	3.02
O=C(Cn1nc(C(F)F)cc1C(F)F)N1CCC(c2nc(C3=NOC(C(O)c4ccccc4)C3)cs2)CC1 (stereo not drawn) [I-8]	100	93	2.53^[a]
CC(C)(c1c(F)cccc1F)C1CC(c2csc(C3CCN(C(=O)Cn4nc(C(F)F)cc4C(F)F)CC3)n2)=NO1 (stereo not drawn) [I-66]	94	100	4.05
Cc1cc(C(F)(F)F)nn1CC(=O)N1CCC(c2nc(C3=NOC(C(F)c4ccccc4)C3)cs2)CC1 (stereo not drawn) [I-19]	100	94	3.3^[a]
Cc1ccc(C)c(NC(=S)N2CCC(c3nc(C4=NOC(C(F)(F)c5c(F)cccc5F)C4)cs3)CC2)c1 (stereo not drawn) [I-27]	90	92	3.81^[a]
C[Si](C)(c1ccccc1)C1CC(c2csc(C3CCN(C(=O)Cn4nc(C(F)F)cc4C(F)F)CC3)n2)=NO1 (stereo not drawn) [I-40]	100	92	4.01
Cc1ccc(C)c(NC(=O)N2CCC(c3nc(C4=NOC(COc5c(Cl)cccc5Cl)C4)cs3)CC2)c1 (stereo not drawn) [I-56]	94	100	3.89
O=C(Cc1cc(Cl)ccc1Cl)N1CCC(c2nc(C3=NOC(COc4ccccc4)C3)cs2)CC1 (stereo not drawn) [I-23]	95	89	3.89
Cc1ccccc1OCC1CC(c2csc(C3CCN(C(=O)Cn4nc(C(F)F)cc4C(F)F)CC3)n2)=NO1 (stereo not drawn) [I-13]	100		3.5
Cc1ccc(Cl)cc1NC(=O)N1CCC(c2nc(C3=NOC(COc4ccccc4)C3)cs2)CC1 (stereo not drawn) [I-33]	100		3.54
CON=Cc1ccccc1OCC1CC(c2csc(C3CCN(C(=O)Cn4nc(C(F)F)cc4C(F)F)CC3)n2)=NO1 (mixture of isomers) [I-60]	94		3.39^[a]; 3.39^[b]
Cc1cc(C(F)F)nn1CC(=O)N1CCC(c2nc(C3=NOC(COc4c(F)cccc4F)C3)cs2)CC1 (stereo not drawn) [I-48]		96	3.01
